From patent US20260199294A1, “PEPTIDE DRUG CONJUGATES” (Oncopeptides Innovation AB, priority 2022, published 2026)

Assays:
[1] = system: hPBMC (Human Peripheral blood mononuclear cells); experiment: In vitro cytotoxicity (CellTiter-Glo, 72 h) in hPBMC; format: cell-based; settings: stimulated with PHA-M and IL-2
Method: (§1) All cells were cultivated in RPMI medium 1640 (IX). All media was supplemented with […] penicillin/streptomycin, 10% heat inactivated FBS, 0.1 mM Sodium Pyruvate, 1×MEM NEAA (ThermoFisher) and 1 mM HEPES. The DERL-2 cells had higher FBS (20%) and 40 ng/mL IL-2 was added. hPBMCs were thawed and allowed to acclimatise overnight and then stimulated with 10 µg/mL PHA-M and 40 ng/mL IL-2 for 4 hours before being exposed to test compounds. All cells, except for hPBMCs, were grown to reach log phase before being exposed to the test compounds.
(§2) Test compounds were dissolved in 100% DMSO and added to a 384 assay plate. Additional DMSO was added to maintain the same final DMSO concentration (0.2%) in all wells. 25 μL cell suspension with a concentration of 100000 cells/mL was added to each well. The cells were cultured in a CO2 incubator at 37° C. for 72 h. Plates were equilibrated to room temperature for 30 minutes before adding 20 μL CellTiter-Glo® 2.0 (Promega) reagent to all wells. The plate was then allowed to stabilize for 20 minutes before recording the luminescence (Em filter 700 nm) in an Envision plate reader.

[2] = system: BJ Fibroblasts (normal cells); experiment: In vitro cytotoxicity (CellTiter-Glo, 72 h) in BJ fibroblasts; format: cell-based, human
Method: as §1, §2

MM.1S cells [3] = experiment: Cellular retention/efflux: intracellular and extracellular concentrations by LC-MS/MS; format: in vitro ADME, human; settings: MM.1S cells, 5, 15 and 60 min; metabolites measured after treatment with the parent Example compound
Method: Methods: MM.1S cells at 2×10^6 cells/mL were seeded at 250 μL per well in a 96-well plate. Cells were incubated in the presence of a test compound for 5, 15, and 60 min before pelleting cells by centrifugation at +4° C. for 5 min. Cell media was immediately harvested to a second plate and stored at −80° C. until further analysis. Pelleted cells were washed once with ice cold PBS before storage at −80° C. until further analysis.
Cells were lysed and protein in the media were precipitated using acetonitrile dimethylformamide, 9:1 containing internal standard. Samples were centrifuged and the supernatant was analyzed with LC-MS/MS (ACQUITY UPLC-Xevo TQ-S micro) to determine compound concentration.
Example compound 1, bendamustine and melphalan were used as test compounds.
Method: Method described in Biological example 3.
Example compounds 1, 2, 3, 4, 6, 7 and 10 were investigated. Intracellular metabolites are formed from all compounds tested. The compound used for cell treatment was metabolised to the ester-hydrolysed compound (here called Metabolite A) and to the amide-hydrolysed compound (called Metabolite B). The example compound structures and the structures of the two metabolites for the respective compounds were as shown in Table 4. The Metabolites B formed under the conditions tested were compounds with structure as Examples 17 and 18: […]

[4] = system: nuclear DNA (HPRT) prepared from MM.1S cells; experiment: Direct DNA damage, PCR amplification with HPRT primers; format: biochemical, human; settings: 0.25 μM compound, 30 minutes at 37° C.
Method: (§3) Method: DNA was prepared from MM.1S cells by QIAGEN genomic tip 20/G according to protocol described in Furda et al., Methods Mol Biol, 2012. 1 μg of DNA was treated with 0.25 μM compound for 30 minutes at 37° C. DMSO was used as control treatment. 20 ng of the treated DNA was PCR amplified using Phusion Hot Start II High Fidelity PCR Master Mix (Thermo Scientific) and primers directed to either HPRT or primers directed to mitochondrial DNA (mtDNA) was used, generating 10.4 or 8.9 kb fragments, respectively. The PCR reactions were separated on a 1% agarose gel and visualized by ChemiDoc™ MP Imaging System (BioRad). Example compounds 1, 2 and 38 were investigated, as were compounds 18 and 20, which are metabolites of compound 1. They were compared with bendamustine, melphalan and DMSO control. The results for compounds 1, 2, 18 and 20 with the HPRT primers are shown in FIG. 4(A); the results with the mtDNA primers are shown in FIG. 4(B).

[5] = system: mitochondrial DNA (mtDNA) prepared from MM.1S cells; experiment: Direct DNA damage, PCR amplification with mtDNA primers; format: biochemical, human; settings: 0.25 μM compound, 30 minutes at 37° C.
Method: as §3

MM.1S cells [6] = experiment: DNA fragmentation, APO-BrdU TUNEL assay by FACS; format: cell-based, human
Method: Method: 1×10^6 MM.1S cells (CRL-2974, ATCC) were treated with Example compound 1 or Bendamustine at 0.006, 0.06, 0.6 or 6 μM for 24 h. After incubation, the cells were washed with PBS (10010-015, Gibco), fixed in Flow Cytometry Fixation Buffer (FC004, R&D Systems) for 10 min and stored in 70% ethanol at −20° C. overnight. The deoxythymidine analog (BrdUTP) was present in the experiment and served to label the DNA break sites. Next day, the cells were washed and stained using an APO-BrdU™ TUNEL Assay Kit, according to the manufacturer's protocol (A23210, Invitrogen), followed by the analysis using BD FACSCanto™ II. The percentage ofTUNEL positive cells indicates the percentage of cells with fragmented DNA.

| SMILES | IC50 [2] | extracellular concentration (media) (MM.1S cells [3]) | intracellular concentration (MM.1S cells [3]) | DNA damage on nuclear DNA (HPRT 10.4 kb PCR band) [4] | DNA damage on mitochondrial DNA (8.9 kb PCR band) [5] | also measured |
| --- | --- | --- | --- | --- | --- | --- |
| CCOC(=O)[C@H](Cc1nc2cc(N(CCCl)CCCl)ccc2n1C)NC(=O)[C@@H](N)CC(C)C [Example compound 10, Ethyl (2S)-2-[[(2S)-2-amino-4-methyl-pentanoyl]amino]-3-[5-[bis(2-chloroethyl)amino]-1-methyl-benzimidazol-2-yl]propanoate] | – | – | – | – | – | IC50 [1]: 26.4 nM |
| CC(C)C[C@H](NC(=O)[C@@H](N)CCc1nc2cc(N(CCCl)CCCl)ccc2n1C)C(=O)N(C)C [Example compound 30, (2S)-2-[[(2S)-2-Amino-4-[5-[bis(2-chloroethyl)amino]-1-methyl-benzimidazol-2-yl]butanoyl]amino]-N,N,4-trimethyl-pentanamide] | > 2000 nM | – | – | – | – | – |
| CCOC(=O)[C@H](Cc1ccc(F)cc1)NC(=O)[C@H](CCc1nc2cc(N(CCCl)CCCl)ccc2n1C)NC(C)=O [Example compound 34, Ethyl (2S)-2-[[(2S)-2-acetamido-4-[5-[bis(2-chloroethyl)amino]-1-methyl-benzimidazol-2-yl]butanoyl]amino]-3-(4-fluorophenyl)propanoate] | > 2000 nM | – | – | – | – | – |
| Cl.Cl.Cn1c(CC[C@H](N)C(=O)O)nc2cc(N(CCCl)CCCl)ccc21 [Example compound 18, (S)-2-amino-4-(5-(bis(2-chloroethyl)amino)-1-methyl-1H-benzo[d]imidazol-2-yl)butanoic acid] | – | low levels of it are found in the media outside the cells | rapidly formed inside the cells | effectively damaged | effectively damaged | – |
| Cn1c(CCCC(=O)O)nc2cc(N(CCCl)CCCl)ccc21 [Bendamustine, reference compound] | – | quite high and decreased over time | Low intracellular concentrations could be detected of bendamustine and the level decreases over time | no or very minor effect on DNA damage | no or very minor effect on DNA damage | cells with DNA breaks (MM.1S cells [6]; 0.6 μM for 24 h): not the case; dose response effect on DNA damage (TUNEL positive cells) (MM.1S cells [6]; 0.006, 0.06, 0.6 or 6 μM for 24 h): no obvious effect |
| N[C@@H](Cc1ccc(N(CCCl)CCCl)cc1)C(=O)O [Melphalan, reference compound] | – | high and constant throughout the experiment | low intracellular concentration | no or very minor effect on DNA damage | no or very minor effect on DNA damage | – |
| CCOC(=O)[C@H](CC(C)C)NC(=O)[C@@H](N)CCc1nc2cc(N(CCCl)CCCl)ccc2n1-c1ccccc1 [Example compound 13, Ethyl (2S)-2-[[(2S)-2-amino-4-[5-[bis(2-chloroethyl)amino]-1-phenyl-benzimidazol-2-yl]butanoyl]amino]-4-methyl-pentanoate] | > 2000 nM | – | – | – | – | – |
| CCOC(=O)[C@H](Cc1ccc(F)cc1)NC(=O)[C@@H](N)CCc1nc2cc(N(CCCl)CCCl)ccc2n1C [Example compound 2, Ethyl (2S)-2-[[(2S)-2-amino-4-[5-[bis(2-chloroethyl)amino]-1-methyl-benzimidazol-2-yl]butanoyl]amino]-3-(4-fluorophenyl)propanoate] | – | – | – | strong DNA damaging effect | strong DNA damaging effect | IC50 [1]: 7.5 nM |
| CCOC(=O)[C@@H](N)CCc1nc2cc(N(CCCl)CCCl)ccc2n1C.Cl.Cl [Example compound 38, Ethyl (2S)-2-amino-4-[5-[bis(2-chloroethyl)amino]-1-methyl-benzimidazol-2-yl]butanoate] | – | – | – | effectively damaged | effectively damaged | – |
| CC(C)C[C@H](NC(=O)[C@@H](N)CCc1nc2cc(N(CCCl)CCCl)ccc2n1C)C(=O)O [Example compound 20, (2S)-2-[[(2S)-2-amino-4-[5-[bis(2-chloroethyl)amino]-1-methyl-benzimidazol-2-yl]butanoyl]amino]-4-methyl-pentanoic acid] | – | – | – | DNA damaging effect but to a lesser degree compared to Example compounds 1, 2 and 18, but greater than Bendamustine or Melphalan | DNA damaging effect but to a lesser degree compared to Example compounds 1, 2 and 18, but greater than Bendamustine or Melphalan | – |
